Measured values published in paper PMC10650486, “Fluoroquinolone-Based Organic Salts (GUMBOS) with Antibacterial Potential” (International Journal of Molecular Sciences, 2023).
Entries after “also recorded” stand apart in the source; their conditions may differ. Structures can show the parent of a compound that is named as a salt. Where two headings read alike, the source gives them in different places.

Key:
[1] = TGA, parent compound; cited from earlier work
[2] = Thermogravimetric analysis (TGA), thermal stability; assay type: physicochemical; conditions: for Tonset / Tpeak / Tstart: 10 °C min^−1, N2 atmosphere; for Residue at 500 °C: mass residue remaining at 500 °C; for Tpeak: temperature at highest degradation rate; for Tstart: temperature where weight loss starts
Description: Thermogravimetric analysis (TGA) was executed using a Hi-Res modulated TGA 2950 thermogravimetric analyzer (TA Instruments, New Castle, DE, USA) and curves were obtained for all GUMBOS. Approximately 1-3 mg of GUMBOS was placed in a platinum pan and heated from 25 °C to 575 °C at a slow heating rate of 10 °C min^-1. Some characteristic parameters were extrapolated. For DSC and TGA, onset temperatures (Tonset) were determined as the temperature value matching the intersection point of the extrapolated initial baseline and the tangent or line through the linear section of the leading edge of the Tpeak point where the Tpeak was the temperature value at the highest degradation rate. For TGA, additional data were collected such as the temperature value where weight loss starts ([…]), and the percentage of mass residue remaining at 500 °C which allows evaluation of the short-term stability. All these parameters were extrapolated using the software NETZSCH Proteus® version 6.1081 (Netzsch-Gerätebau GmbH, Selb, Germany) for DSC analysis and Universal Analysis 2000 version 4.5A (TA Instruments-Waters LLC, New Castle, DE, USA) for TGA analysis.

[3] = system: L929 mouse fibroblast cells; assay: Cytotoxicity evaluation, resazurin reduction assay; assay type: cell-based; conditions: 24 h exposure
Description: To assess the impact of GUMBOS on cell viability, the resazurin assay was employed using L929 mouse fibroblast cells as described previously by Page et al.. The L929 cells were cultured at 37 °C in a 5% CO2 atmosphere, utilizing DMEM supplemented with 10% FBS and 1% streptomycin/gentamycin. Once the cell culture reached 70–80% confluence, it was detached using a 0.25% (w/v) trypsin-ethylenediaminetetraacetic acid (EDTA) solution. The cells were then subjected to centrifugation with the Heraeus Multifuge X1R centrifuge (Thermo Fisher Scientific; Waltham, MA, USA) and resuspended in fresh medium. Viable cell counts were obtained through a Neubauer chamber (Improved Neubauer Bright-Line, Boeco; Hamburg, Germany).
For experiments, L929 cells were seeded at a density of 5 × 10^4 cells per well in 96-well microplates and supplemented with DMEM medium. Plates were placed in a humidified incubator at 37 °C with 5% CO2 for 24 h to allow cell attachment and growth. Subsequently, the culture medium was replaced with different concentrations of each sample being tested. After 24h incubation, the medium was replaced with fresh culture medium containing 10% resazurin. Cells were then incubated for 4 h in the dark at 37 °C with 5% CO2 to allow resazurin conversion. Fluorescence of resorufin was measured using a plate reader (Synergy HT plate reader-Biotek Instruments, Winooski, VT, USA) with excitation at 560 nm and emission at 590 nm. Negative control wells contained only culture medium, while positive control wells contained the cation precursor, the active pharmaceutical ingredient. All experiments were conducted in triplicate.

[4] = Octanol/water partition coefficient, shake-flask method; assay type: physicochemical; conditions: for logKO/W ± SD: octanol/water, shake-flask, mean ± standard deviation; for relative hydrophobicity from log KO/W: ranking within the [Cip]-based or [Mox]-based GUMBOS
Description: Following synthesis and structural characterization of FQ-based GUMBOS, octanol/water partition coefficient (Ko/w) values were obtained through a shake-flask method with minor modifications. Initially, water and 1-octanol were saturated by agitation for 24 h at room temperature. GUMBOS were solubilized in 5 mL of water-saturated octanol (Ci), to which an equivalent volume of octanol-saturated water was added. This solution subjected to 24 h of agitation and the absorbance of the upper layer was measured at a wavelength of 280 nm. Sample concentration in octanol (Co) was determined through a calibration curve, which was created using six solutions of different concentrations (4–30 μmol·L^−1) of GUMBOS in 1-octanol. Later, GUMBOS concentration in water (Cw) were obtained by the following equation Ci − C0 = Cw. Octanol/water partition coefficient (Ko/w) values were then calculated using Ko/w = Co/Cw. Data were representative of three replicates executed for each of the GUMBOS.

[5] = system: Staphylococcus aureus subsp. aureus Rosenbach ATCC 25923; assay: Antibacterial susceptibility testing, broth microdilution, bacterial growth by absorbance at 630 nm; assay type: cell-based
Description: To evaluate the antimicrobial profile, a study was performed using the broth microdilution standard method with minor modifications using DMSO as solvent. Standard laboratory strains of Gram-positive Staphylococcus aureus subsp. aureus Rosenbach ATCC 25923 and Gram-negative Escherichia coli O157:H7 were studied. TSB was used as the culture medium for bacteria and samples with bacteria in media were considered positive controls.
Antibacterial activity of GUMBOS was evaluated by comparing it with negative controls, as well as with the antibacterial activity of the parent compounds, [Cip][HCl] and [Mox][HCl]. […] These values are determined through laboratory testing and can vary depending on the testing methodology and conditions, thus the range increase in this study to 25 mg·L^−1. Stock solutions were prepared using water for water-soluble compounds while non-water soluble compounds were reconstituted using a deionized water solution containing 5% DMSO [96]. Following that, the compounds were diluted using fresh tryptic soy broth (TSB) to achieve desired concentrations. Initially, agar media was used to grow additional bacteria to correlate absorbance readings to microbial counts. Then, a solution of 0.1 mL of S. aureus added to 10 mL of TSB was incubated at 37 °C for 24 h and repeated for three more days until enough bacteria was obtained. After centrifugation and washing steps with PBS (1×) solution until obtaining a homogenized pellet, the inoculum was then diluted to 0.06 absorbance at 630 nm or 0.5 McFarland [97]. After compounds were diluted in TSB, 100 μL of samples with 100 μL of S. aureus inoculum were then transferred to a 96-well flat bottom microtitre plate (TPP, Switzerland) which was sealed and left in incubation at 37 °C for 24 h. Absorbance was read at 630 nm with a BioTek universal microplate reader (Agilent Technologies, VT, USA) to determine the turbidity in the wells [97, 98]. Three wells were prepared per sample. To ensure the viability and growth of bacteria in the culture media, negative controls were conducted along with a positive culture using the media containing only the bacteria. [Cip][HCl] served as the reference antibacterial agent.

E. coli O157:H7 = system: E. coli O157:H7; parameters: method as in PMID 23447139; conditions: same E. coli O157:H7 strain; cited from earlier work
[6] = cited from earlier work
S. aureus = system: S. aureus; parameters: method as in earlier work; conditions: cited from earlier work
E. coli = system: E. coli; parameters: method as in earlier work; conditions: cited from earlier work
[7] = 50 mg·L^−1 (highest concentration)
[8] = 0.25 mg·L^−1, 24 h exposure, Figure 4a
[9] = 25 mg·L^−1, 24 h exposure, Figure 4b

Row | SMILES | Tonset [2] | Residue at 500 °C [2] | Tpeak [2] | Tstart [2] | logKO/W ± SD [4] | further results
1 | O=C(O)c1cn(C2CC2)c2cc(N3CCNCC3)c(F)cc2c1=O [[Cip][HCl], Ciprofloxacin hydrochloride monohydrate] |  |  |  |  |  | Tonset [1]: 300 °C; Tpeak [1]: 318 °C; Tstart [1]: 150 °C
2 | COc1c(N2C[C@@H]3CCCN[C@@H]3C2)c(F)cc2c(=O)c(C(=O)O)cn(C3CC3)c12.C[C@H](CCC(=O)O)[C@H]1CC[C@H]2[C@@H]3CC[C@@H]4C[C@H](O)CC[C@]4(C)[C@H]3C[C@H](O)[C@]12C [[Mox][Dxc]] | 275.22 °C | 15.60% | 284.97 °C | 208.92 °C |  | 
3 | COc1c(N2C[C@@H]3CCCN[C@@H]3C2)c(F)cc2c(=O)c(C(=O)O)cn(C3CC3)c12.O=S(=O)(NS(=O)(=O)C(F)(F)F)C(F)(F)F [[Mox][NTF2]] | 319.64 °C | 24.57% | 327.51 °C | 297.72 °C |  | cytotoxicity to L929 cells (cell viability) [3, 7]: slight toxicity
4 | O=C(O)c1cn(C2CC2)c2cc(N3CCNCC3)c(F)cc2c1=O.O=S(=O)(NS(=O)(=O)C(F)(F)C(F)(F)F)C(F)(F)C(F)(F)F [[Cip][BETI]] | 284.61 °C | 35.43% | 294.04 °C | 266.25 °C | −0.314 ± 0.094 | 
5 | COc1c(N2C[C@@H]3CCCN[C@@H]3C2)c(F)cc2c(=O)c(C(=O)O)cn(C3CC3)c12 [[Mox][HCl], moxifloxacin hydrochloride monohydrate] |  |  |  |  |  | Tonset [1]: 240 °C; Tpeak [1]: 260 °C; Tstart [1]: 220 °C
6 | O=C(O)c1cn(C2CC2)c2cc(N3CC[NH2+]CC3)c(F)cc2c1=O.c1ccc([B-](c2ccccc2)(c2ccccc2)c2ccccc2)cc1 [[Cip][TPB]] | 117.85 °C | 36.93% | 122.95 °C | 98.94 °C | −0.464 ± 0.006 | cytotoxicity to L929 cells (cell viability) [3, 7]: some levels of cell toxicity
7 | CCCCC(CC)COC(=O)CC(C(=O)OCC(CC)CCCC)S(=O)(=O)O.COc1c(N2C[C@@H]3CCCN[C@@H]3C2)c(F)cc2c(=O)c(C(=O)O)cn(C3CC3)c12 [[Mox][Doc]] | 271.04 °C | 33.55% | 275.90 °C | 249.91 °C |  | antibacterial performance (bacterial growth) against S. aureus [5, 8]: activities closer to their precursor; antibacterial performance (bacterial growth) against S. aureus [5, 9]: significant differences from their corresponding precursors
8 | COc1c(N2C[C@@H]3CCCN[C@@H]3C2)c(F)cc2c(=O)c(C(=O)O)cn(C3CC3)c12.O=S(=O)(NS(=O)(=O)C(F)(F)C(F)(F)F)C(F)(F)C(F)(F)F [[Mox][BETI]] | 307.46 °C | 32.31% | 322.97 °C | 266.98 °C |  | 
9 | O=C(O)c1cn(C2CC2)c2cc(N3CCNCC3)c(F)cc2c1=O.O=S(=O)(NS(=O)(=O)C(F)(F)F)C(F)(F)F [[Cip][NTF2]] | 287.79 °C | 39.88% | 295.18 °C | 263.57 °C | 0.145 ± 0.075 | antibacterial performance (bacterial growth) against S. aureus [5, 8]: activities closer to their precursor
10 | CCCCC(CC)COC(=O)CC(C(=O)OCC(CC)CCCC)S(=O)(=O)O.O=C(O)c1cn(C2CC2)c2cc(N3CCNCC3)c(F)cc2c1=O (centres unmarked) [[Cip][Doc]] | 286.49 °C | 24.26% | 286.64 °C | 252.18 °C | 0.162 ± 0.015 | relative hydrophobicity from log KO/W [4]: most hydrophobic
11 | c1ccc([B-](c2ccccc2)(c2ccccc2)c2ccccc2)cc1 [[Na][TPB], sodium tetraphenylborate, reference compound] |  |  |  |  |  | cytotoxicity to L929 cells (cell viability) ([3]; two highest concentrations (25 and 50 mg·L^−1)): cytotoxic
12 | CC1(C)SC2C(NC(=O)C(N)c3ccccc3)C(=O)N2C1C(=O)O.CC1(C)SC2C(NC(=O)C(N)c3ccccc3)C(=O)N2C1C(=O)O.N=C(NCCCCCCNC(=N)NC(=N)Nc1ccc(Cl)cc1)NC(=N)Nc1ccc(Cl)cc1 [chlorhexidine di-ampicillin] |  |  |  |  |  | concentrations at which growth was inhibited (E. coli O157:H7): 0.06 to 0.12 mg/L
13 | C[C@H](CCC(=O)O)[C@H]1CC[C@H]2[C@@H]3CC[C@@H]4C[C@H](O)CC[C@]4(C)[C@H]3C[C@H](O)[C@]12C.O=C(O)c1cn(C2CC2)c2cc(N3CCNCC3)c(F)cc2c1=O [[Cip][Dxc]] | 326.23 °C | 19.75% | 332.30 °C | 211.93 °C | −1.110 ± 0.018 | relative hydrophobicity from log KO/W [4]: most hydrophilic; cytotoxicity to L929 cells (cell viability) [3, 7]: some levels of cell toxicity; also recorded: slight toxicity; antibacterial performance (bacterial growth) against S. aureus [5, 8]: least antimicrobial agent of all tested samples; antibacterial performance (bacterial growth) against S. aureus [5, 9]: significant differences from their corresponding precursors; also recorded: least antimicrobial agent of all tested samples
14 | O=C(O)c1cn(C2CC2)c2cc(N3CCNCC3)c(F)cc2c1=O [[Cip], ciprofloxacin] |  |  |  |  |  | logKO/W [6]: −0.13; epidemiologic cutoff value (ECOFF) (S. aureus): 2 mg·L^−1; epidemiologic cutoff value (ECOFF) (E. coli): 0.06 mg·L^−1
15 | COc1c(N2C[C@@H]3CCC[NH2+][C@@H]3C2)c(F)cc2c(=O)c(C(=O)O)cn(C3CC3)c12.c1ccc([B-](c2ccccc2)(c2ccccc2)c2ccccc2)cc1 [[Mox][TPB]] | 176.37 °C | 42.13% | 177.21 °C | 144.02 °C |  | antibacterial performance (bacterial growth) against S. aureus [5, 8]: activities closer to their precursor; antibacterial performance (bacterial growth) against S. aureus [5, 9]: significant differences from their corresponding precursors
